From patent publication US10501437B2 (Bayer Pharma Aktiengesellschaft, priority 2016, dated 2019)

Assay: Storage stability and micronization of crystalline material from the cubic dosing curve crystallization
Format: physicochemical
Details: crystalline material obtained from ethanol/water by cubic dosing curve crystallization

With CC(C)(O)CCn1cc2cc(NC(=O)c3cccc(C(F)(F)F)n3)c(C(C)(C)O)cc2n1 [compound (I), N-[2-(3-Hydroxy-3-methylbutyl)-6-(2-hydroxypropan-2-yl)-2H-indazol-5-yl]-6-(trifluoromethyl)pyridine-2-carboxamide] the stability during storage was “good stability”.
